From patent US10987322B2, “Immunoregulatory agents” (FLEXUS BIOSCIENCES, INC., priority 2014, dated 2021)

Molecular target: IDO (Homo sapiens, UniProt P14902)
Assay: IDO enzyme activity assay
Type: biochemical
Settings: read-out: Potency: IDO IC50
Method: An IDO enzyme assay and cellular production of kynurenine (KYN) is described in Sarkar, S. A. et al., Diabetes 56:72-79 (2007). Briefly, all chemicals can be purchased from Sigma-Aldrich (St. Louis, Mo.) unless specified otherwise. Groups of 1,000 human islets can be cultured for 24 h in 1 mL medium with cytokines, recovered by centrifugation for 5 min at 800×g and sonicated in 150 μL PBS containing a protease inhibitor cocktail (Set 2; Calbiochem, EMD Biosciences, San Diego, Calif.). The sonicate can be centrifuged for 10 min at 10,000×g, and the supernatant can be assayed in triplicate by incubating a 40 μl sample with an equal volume of 100 mmol/L potassium phosphate buffer, pH 6.5, containing 40 mmol/L ascorbic acid (neutralized to pH 7.0), 100 μmol/L methylene blue, 200 μg/mL catalase, and 400 μmol/l L-Trp for 30 min at 37° C. The assay can be terminated by the addition of 16 μL 30% (w/v) trichloroacetic acid (TCA) and further incubated at 60° C. for 15 min to hydrolyze N-formylkynurenine to KYN. The mixture can then be centrifuged at 12,000 rpm for 15 min, and KYN can be quantified by mixing equal volume of supernatant with 2% (w/v) Ehrlich's reagent in glacial acetic acid in 96-well microtiter plate and reading the absorbance at 480 nm using L-KYN as standard. Protein in the islet samples can be quantified by Bio-Rad Protein assay at 595 nm. For the detection of L-KYN in the islet culture supernatants, proteins can be precipitated with 5% (w/v) TCA and centrifuged at 12,000 rpm for 15 min, and determination of KYN in the supernatant with Ehrlich's reagent can be determined as described above. IL-4 ([…]; 500-2,000 units/mL) and 1-α-methyl Trp (1-MT; 40 μmol/L) can be added to the incubation media as indicated. This assay can also form the basis of a cell-based assay, and may be quantified via LCMS/MS as an alternative to UV/Vis detection.
cDNA clones for both human and mouse IDO have been isolated and verified by sequencing and are commercially available. In order to prepare IDO for biochemical studies, C-terminal His-tagged IDO protein can be produced in E. coli using the IPTG-inducible pET5a vector system and isolated over a nickel column. The yield of the partially purified protein can be verified by gel electrophoresis and the concentration estimated by comparison to protein standards. To assay IDO enzymatic activity, a 96-well plate spectraphotometric assay for kynurenine production can be run following published procedures (see, e.g., Littlejohn, T. K., et al. (2000) Prot. Exp. Purif. 19:22-29). To screen for IDO inhibitory activity, compounds can be evaluated at a single concentration of, for example, 200 μM against 50 ng of IDO enzyme in 100 μL reaction volumes with tryptophan added at increasing concentrations at, for example, 0, 2, 20, and 200 μM. Kynurenine production can be measured at 1 hour.

IDO, sequence (P14902 whole entry): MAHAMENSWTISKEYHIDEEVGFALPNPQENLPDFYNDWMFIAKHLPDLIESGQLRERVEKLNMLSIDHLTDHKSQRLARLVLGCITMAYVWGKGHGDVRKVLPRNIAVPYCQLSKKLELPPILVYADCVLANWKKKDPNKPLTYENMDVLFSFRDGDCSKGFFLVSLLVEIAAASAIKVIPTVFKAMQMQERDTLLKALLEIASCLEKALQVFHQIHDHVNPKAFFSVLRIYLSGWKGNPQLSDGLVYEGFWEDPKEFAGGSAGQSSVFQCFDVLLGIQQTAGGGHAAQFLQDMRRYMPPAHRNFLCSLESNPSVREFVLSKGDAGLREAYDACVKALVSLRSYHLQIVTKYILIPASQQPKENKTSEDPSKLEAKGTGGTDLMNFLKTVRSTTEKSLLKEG

IC50	SMILES
< 1 µM	O/N=C(/CC1CC1)Nc1cccc(Cl)c1
< 10 µM	CC/C(=N/O)Nc1cccc(Cl)c1
< 1 µM	CCCCC/C(=N/O)Nc1cccc(Cl)c1
< 1 µM	CCC/C(=N/O)Nc1cccc(Cl)c1
< 1 µM	CC(C)C/C(=N/O)Nc1cccc(Cl)c1
< 1 µM	CC(C)CC/C(=N/O)Nc1cccc(Cl)c1
< 1 µM	CCCCCC/C(=N/O)Nc1cccc(Cl)c1
< 10 µM	OCCCC/C(=N/O)Nc1cccc(Cl)c1
< 1 µM	CCCC/C(=N/O)Nc1cccc(Cl)c1
< 1 µM	O/N=C(/CCC1CCCC1)Nc1cccc(Cl)c1

The remaining lines, values behind:

SMILES	IC50
O/N=C(/CC1CCCO1)Nc1cccc(Cl)c1 (stereo not drawn)	< 10 µM
O/N=C(/CC(O)C1CCCCC1)Nc1ccc(F)c(F)c1 (stereo not drawn)	< 100 µM
O/N=C(/CC(O)C1CCCCC1)Nc1cccc(F)c1 (stereo not drawn)	< 100 µM
CC(C)(C)C/C(=N/O)Nc1cccc(Cl)c1	< 100 µM
O/N=C(/CC(O)C1CCCCC1)Nc1cc(Cl)cc(Cl)c1 (stereo not drawn)	< 10 µM
O/N=C(/CC(O)C1CCCCC1)Nc1cccc(C(F)(F)F)c1 (stereo not drawn)	< 100 µM
O/N=C(/CC(O)C1CCCCC1)Nc1cc(F)cc(Cl)c1 (stereo not drawn)	< 100 µM
O/N=C(/CC1CCCC1O)Nc1cccc(Cl)c1 (stereo not drawn)	< 10 µM
O/N=C(/CC(O)C1CCCCC1)Nc1cccc(Cl)c1 (stereo not drawn)	< 10 µM
O/N=C(/CC1CCCCC1)Nc1cccc(Cl)c1	< 1 µM
O/N=C(\Nc1cccc(Cl)c1)C1CCCC1	< 10 µM
O/N=C(/CC1CCCC1)Nc1cccc(Cl)c1	< 1 µM
O/N=C(/CCC1CCCCC1)Nc1cccc(Cl)c1	< 1 µM
O/N=C(/CC(O)C1CCCCC1)Nc1ccc(Cl)c(F)c1 (stereo not drawn)	< 100 µM
